The supplement of paper PMC10307832

Experiments:
Assay in all cases: relative viability (nuclei count vs DMSO), 5 days (fraction); higher = more cells survive
[1] = compound: C1CC2=C(C1)C=C(C=C2)OC3=NC(=C4C(=N3)N(C=N4)CC5=CC=C(C=C5)C6=CC=CC=C6)N[C@@H](CC7=CC=CC=C7)CO [QS11] + C[C@]1(O)C[C@@H](c2nc(-c3ccc4ccc(-c5ccccc5)nc4c3)c3c(N)nccn32)C1 [Linsitinib] (partner 1 µM)
In short: (§1)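 Medians of duplicate plates are given as relative viability. That measure is the nuclei count in treated wells divided by the count in vehicle wells. Counts were taken on 4× images of lung cancer cell lines in 1536-well plates, 5 days after pin-tool dosing the day after seeding with one drug alone or a fixed anchor-drug dose plus five library-drug doses (not always all listed) in √10 steps.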

[2] = compound: CC1=C(C=C(C=C1)NC(=O)C2=CC(=CC=C2)C(C)(C)C#N)NC3=CC4=C(C=C3)N=CN(C4=O)C [AZ628] + COc1cc2c(Oc3ccc(NC(=O)C4(C(=O)Nc5ccc(F)cc5)CC4)cc3F)ccnc2cc1OCCCN1CCOCC1 [Foretinib] (partner 0.25 µM)
In short: as §1

[3] = compound: CC1=C(C=C(C=C1)NC(=O)C2=CC(=CC=C2)C(C)(C)C#N)NC3=CC4=C(C=C3)N=CN(C4=O)C [AZ628] + Nc1ncn([C@H]2C[C@H](O)[C@@H](CO)O2)c(=O)n1 [Decitabine] (partner 2 µM)
In short: as §1

[4] = compound: C[As](C)SC[C@H](NC(=O)CC[C@H](N)C(=O)O)C(=O)NCC(=O)O [Darinaparsin] + Cc1nc(NC(=O)N2CCC[C@H]2C(N)=O)sc1-c1ccnc(C(C)(C)C(F)(F)F)c1 [Alpelisib] (partner 2 µM)
In short: as §1

Row | Cell Line | relative viability ([1]; first compound 0.253 µM) | relative viability ([1]; first compound 0.8 µM) | relative viability ([1]; first compound 2.53 µM) | relative viability ([1]; first compound 8 µM) | relative viability ([2]; first compound 0.08 µM) | relative viability ([2]; first compound 0.253 µM) | relative viability ([2]; first compound 0.8 µM) | relative viability ([2]; first compound 2.53 µM) | relative viability ([2]; first compound 8 µM) | relative viability ([3]; first compound 0.08 µM) | relative viability ([3]; first compound 0.253 µM) | relative viability ([3]; first compound 0.8 µM) | relative viability ([3]; first compound 2.53 µM) | relative viability ([3]; first compound 8 µM) | relative viability ([4]; first compound 0.08 µM) | relative viability ([4]; first compound 0.8 µM) | relative viability ([4]; first compound 2.53 µM) | relative viability ([4]; first compound 8 µM) | relative viability ([1]; first compound 0.08 µM)
1 | NCI-H520 | 0.986 | 1.09 | 1.18 | 1.11 | 0.834 | 0.7 | 0.76 | 0.802 | 0.631 | 0.563 | 0.488 | 0.547 | 0.472 | 0.382 | 1.07 | 0.712 | 0.885 | 1.04 | 
2 | NCI-H2405 | 0.925 | 0.946 | 0.942 | 1.17 | 0.637 | 0.857 | 0.673 | 0.757 | 0.539 | 0.552 | 0.53 | 0.488 | 0.495 | 0.408 | 0.735 | 0.734 | 0.693 | 0.755 | 0.893
3 | NCI-H2087 | 1.15 | 0.845 | 0.655 | 0.708 | 0.839 | 0.821 | 0.727 | 0.78 | 0.256 | 0.267 | 0.153 | 0.184 | 0.137 | 0.146 | 1.15 | 0.988 | 1.13 | 1.18 | 1.01
4 | NCI-H460 | 0.976 | 0.725 | 0.479 | 0.073 | 0.978 | 0.996 | 0.974 | 1.02 | 0.54 | 0.512 | 0.456 | 0.38 | 0.532 | 0.165 | 0.566 | 0.549 | 0.417 | 0.821 | 0.874
5 | LCLC-103H | 1.1 | 0.74 | 1.21 | 1.09 | 0.724 | 0.753 | 0.802 | 0.729 | 0.853 | 0.71 | 0.728 | 0.726 | 0.641 | 0.601 | 0.945 | 0.982 | 0.915 | 1.11 | 1.08
6 | NCI-H441 | 0.544 | 0.613 | 0.561 | 0.601 | 0.94 | 0.962 | 0.896 | 0.901 | 0.846 | 0.257 | 0.313 | 0.245 | 0.212 | 0.226 | 0.774 | 0.635 | 0.809 | 0.893 | 0.519
